{"source": "ChEMBL document CHEMBL2086378", "about": "“Eudesmane-type sesquiterpenoid and guaianolides from Kandelia candel in a screening program for compounds to overcome TRAIL resistance” (2012)", "assay_type_in_all_cases": "functional", "key": {"AGS [1]": {"test_system": "AGS", "assay": "Cytotoxicity against TRAIL-resistant human AGS cells assessed as inhibition of cell viability at 80 uM after 24 hrs by fluorescence assay in presence of 100 ng/ml TRAIL relative to in absence of TRAIL"}, "AGS [2]": {"test_system": "AGS", "assay": "Cytotoxicity against TRAIL-resistant human AGS cells assessed as inhibition of cell viability at 50 uM after 24 hrs by fluorescence assay in presence of 100 ng/ml TRAIL relative to in absence of TRAIL"}, "AGS [3]": {"test_system": "AGS", "assay": "Cytotoxicity against TRAIL-resistant human AGS cells assessed as inhibition of cell viability at 17.5 uM after 24 hrs by fluorescence assay in presence of 100 ng/ml TRAIL relative to in absence of TRAIL"}, "AGS [4]": {"test_system": "AGS", "assay": "Cytotoxicity against TRAIL-resistant human AGS cells assessed as inhibition of cell viability at 10 uM after 24 hrs by fluorescence assay in presence of 100 ng/ml TRAIL relative to in absence of TRAIL"}}}
{"smiles": "C=C(C(=O)OC)[C@@H]1CC[C@@]2(C)C=CC(=O)C(C)=C2C1", "values": [{"measurement": "inhibition (INH)", "setting": "AGS [1]", "value": 29, "unit": "%"}]}
{"smiles": "CC(=O)O[C@H]1CC(C)=C2C(=O)C=C(C)[C@@H]2[C@H]2OC(=O)[C@@H](C)[C@@H]21", "values": [{"measurement": "inhibition (INH)", "setting": "AGS [2]", "value": 23, "unit": "%"}]}
{"smiles": "O=c1cc(-c2ccc(O)c(O)c2)oc2cc(O)cc(O)c12", "note": "[LUTEOLIN]", "values": [{"measurement": "inhibition (INH)", "setting": "AGS [3]", "value": 48, "unit": "%"}]}
{"smiles": "C/C=C(\\C)C(=O)O[C@H]1CC(C)=C2C(=O)C=C(C)[C@@H]2[C@H]2OC(=O)[C@@H](C)[C@@H]21", "note": "[MEHIRUGIN B]", "values": [{"measurement": "inhibition (INH)", "setting": "AGS [4]", "value": 27, "unit": "%"}]}
